In patent US6106872A, “Process for obtaining aroma components and aromas from their precursors of a glycosidic nature, and aroma components and aromas thereby obtained” (Gist-brocades NV, priority 1988, dated 2000):
“Also recorded” adds a separate entry of the source.

Assays:
[1] = Enzymatic hydrolysis of a glycosidic extract (TLC and GC monitoring); format: biochemical, Muscat de Frontignan variety grapes; conditions: for % of monoglucosides: Table 5, both enzymes together; for Terpene monoglucosides liberated by α-arabinosidase / Terpene monoglucosides liberated by α-rhamnosidase: Table 5, percentage of the total amount liberated by the two enzymes
Experimental: Thin-layer adsorption chromatography was carried out on pieces of aluminum foil covered with a thin layer (0.2 mm) of silica gel (5553 Silica gel 60 without a fluorescence indicator, Merck). An ethyl acetate/isopropanol/water (65:30:10 v/v/v) mixture was used as a migration solvent.
The sugars and the glycosides are visualized by means of the following mixture, prepared immediately before use: 0.2% napthoresorcinol in ethanol/concentrated sulphuric acid (19:1 v/v). The application of this visualizing agent is followed by drying the plates in the oven (105° C.) for 15 minutes. Apart from their migration distance, the various compounds are also distinguished by their color. The glycosides are purple-red, the arabinosides are bluish, rhamnose greenish pink, arabinose blue and glucose pink.
40 μl of glycosidic extract and 60 μl of a solution of Glc-pNP (internal standard) at a concentration of 50 mg/l in ethyl acetate are introduced into a suitable flask. The mixture is taken to dryness at 40° C. with a stream of nitrogen. 40 μl of the silylating reagent (Tri-sil, Pierce, Rockford, Ill., USA) are then introduced; the flask is sealed and maintained at 40° C. for 20 minutes. After rapid cooling, the silylated sample is then ready for analysis by GC.
The apparatus used consists of a Series 30C gas chromatograph, an "on-column" injector (injected volume 0.5 μl) and a flame ionization detector (Girdel, France). A thin film (0.20 μm) of an OV-1 (girdel) apolar silicone phase is grafted onto the inner wall of the capillary column ([…].). The oven temperature is programmed from 125 to 305° C. at the rate of 5° C./minute, then maintained at 305° C. for 15 minutes. Finally, the detector temperature is set at 300° C. and hydrogen is used as the carrier gas at a pressure of 120 kPa.
The monoterpene alcohols studied here are sufficiently volatile to be chromatographed as they are. To the pentane extract containing them, the internal standard, 4-nonanol (for synthesis, Merck, Darmstadt, FRG) is added in the proportion of 1 μl of a solution at a concentration of 2.89 mg/ml in pentane per 50 μl of medium. The mixture is then dried over sodium sulphate, filtered through glass wool and then concentrated to a volume in the region of 100 μl. For this purpose, the pentane is first removed using a conventional still, and then a Dufton type column of a size suited to the volume remaining to be concentrated.
The constituents of the concentrated extract are separated using a capillary column (25 m×0.32 mm I.D.) containing a CP wax 52 CB (Chrompack, Middelburg, Netherlands) polar phase. The grafted polyethylene glycol film was selected thick (1.28 μm) in order to permit the injection of large sample volumes, up to 4 μl. The analysis is performed using a Fractovap Series 2900 (Carlo Erba, Milan, Italy) chromatograph, equipped with a flame ionization detector maintained at 250° C. and an "on-column" injector. Hydrogen was used as the carrier gas at a pressure of 60 kPa, and the oven temperature was programmed as follows: isothermal at 70° C. for 5 minutes, followed by a rise to 195° C. at the rate of 2° C./minute and a plateau at 195° C. for 15 minutes.
The glycosidic extract was obtained by extraction of a must of Muscat de Frontignan variety grapes collected at maturity in the vines of the Station Experimentale de Pech Rouge (INRA Gruissan, France), followed by removal of the free terpenols and sugars.
The glycoside fraction was taken to dryness under vacuum and then taken up in 18 ml of water. The glycosidic extract used in the chromatographic and enzymatic experiments was thereby obtained.
The experimental protocols for the enzymatic hydrolysis on the glycosidic extract are collated in Table 3. […]

[2] = Enzymatic hydrolyses on synthetic substrates (TLC, pNP, GC); format: biochemical; conditions: from the synthetic glycosides
Excerpt: The enzymatic hydrolysis is followed by thin-layer chromatography (TLC) and by gas chromatography (GC).
In all the tests relating to the enzymatic hydrolysis of the synthetic substrates, the same glycosidase activity (0.15 nkat) is used for each of the enzymes (α-arabinosidase, α-rhamnosidase, β-glucosidase).

[3] = Sequential enzymatic hydrolysis of HPLC fractions (peaks A and B), GC analysis; format: biochemical, Muscat de Frontignan variety grapes
Experimental: The benefits of high performance liquid chromatography were exploited for isolating some terpene glycosides. For this purpose, fractions were collected as they emerged from the chromatographic system (more especially on elution of the peaks A and B) during the separation of the constituents of the glycosidic extract. (FIG. 10 below). Fifteen successive injections of 20 μl each enabled sufficient material to be isolated for the enzymatic hydrolyses and the analyses by GC to be performed in order to identify the compounds in question.
The chromatographic system consists of the following components: a Vista 5500 chromatograph equipped with a variable wavelength UV/visible spectrophotometer (Varian Assoc., Sunnyvale, Calif., USA); a six-way injection valve (Valco) equipped with a 20-μl loop; a stainless steel column (220×4 mm I.D.) filled with Spheri-5 (Brownlee Labs., Santa Clara, Calif., USA) octadecyl grafted silica of small particle size (5 μm); as well as a precolumn (37×4 mm I.D.) packed with the same stationary phase.
The chromatography is carried out using a water/-acetonitrile aqueous-organic mobile phase (reversed-phase polarity chromatography) and an elution graduated according to an increase in the acetonitrile content from 30 to 40% (by volume) in the course of 10 minutes. The elution solvent is pumped at a flow rate of 1 ml/min. The detection is performed at 200 nm and 0.5 absorbance unit full-scale.
Furthermore, each fraction was subjected to the sequential action of α-arabinosidase and then β-glucosidase. At the end of each stage and according to the procedures described, the incubated medium was analysed by GC in order to test for sugars and glucosides on the one hand, and for terpenols on the other hand. Thus, the peaks A and B were identified, respectively, as neryl and geranyl α-L-arabinofuranosyl-β-D-glucopyranosides. The identity of the geranyl glycoside was verified, in addition, by co-injection of the glycosidic extract with the synthetic compound.

[4] = Enzymatic hydrolysis on natural media by commercial enzyme preparations; format: biochemical, Muscat d'Alexandrie variety grapes; conditions: Hemicellulase + Naringinase, 25° C., 86 hours
Experimental: The enzymatic hydrolysis of a glycosidic extract incorporated, on the one hand into a natural medium (must or dry wine), and on the other hand into a reference medium (buffer), by the action of commercial preparations containing the requisite three glycosidases, was studied.
A juice and a wine of a vine variety not containing terpenols and terpene glycosides, but enriched beforehand with a known amount of glycosidic extract of muscat, are treated with commercial enzyme preparations. The media, as well as controls, are incubated at 25° C. for 86 hours (see the experimental protocol plan below). They are then passed through a column of Amberlite XAD-2 according to the protocol applied for the production of the glycosidic extract, and the terpenols are assayed by GC.
(4) The glycosidic extract used is obtained by passing a must of Muscat d'Alexandrie variety grapes through Amberlite XAD-2. The amount of glycosidic extract (1 ml) added in the tests corresponds to that found in 50 ml of must of Muscat d'Alexandrie variety grapes.

Compound | Terpene monoglucosides liberated by α-arabinosidase [1] [%] | Terpene monoglucosides liberated by α-rhamnosidase [1] [%] | % of monoglucosides [1] [%] | other results
O=[N+]([O-])c1ccc(O)cc1 [pNP, p-nitrophenol] |  |  |  | liberation of the aglycones [2]: liberated only after the sequential action of both glycosidases
CC(C)=CCC/C(C)=C/CO[C@@H]1O[C@H](CO[C@@H]2O[C@@H](CO)[C@H](O)[C@H]2O)[C@@H](O)[C@H](O)[C@H]1O (single isomer, unassigned) [Peak B, geranyl α-L-arabinofuranosyl-(1--> 6)-β-D-glucopyranoside] |  |  |  | Compounds appearing after action of α-arabinosidase [3]: arabinose; also recorded: Glc--Ger; Compounds appearing after action of α-arabinosidase and then β-glucosidase [3]: glucose; also recorded: geraniol
C=CC(C)(O)CCC=C(C)C (stereo not drawn) [Linalol, linalool] |  |  |  | Compounds liberated relative to the reference medium ([4]; MUST (pH 3.4, sugars 180 g/l)): 9%; Compounds liberated relative to the reference medium ([4]; WINE (dry white, pH 3.1)): 14%
CC(C)=CCC/C(C)=C\CO[C@@H]1O[C@H](CO[C@@H]2O[C@@H](CO)[C@H](O)[C@H]2O)[C@@H](O)[C@H](O)[C@H]1O (single isomer, unassigned) [Peak A, neryl α-L-arabinofuranosyl-(1--> 6)-β-D-glucopyranoside] |  |  |  | Compounds appearing after action of α-arabinosidase [3]: arabinose; also recorded: Glc--Ner; Compounds appearing after action of α-arabinosidase and then β-glucosidase [3]: glucose; also recorded: nerol
OCc1ccccc1 [Benzyl alcohol, benzyl alcohol] |  |  |  | Compounds liberated relative to the reference medium ([4]; MUST (pH 3.4, sugars 180 g/l)): 46%; Compounds liberated relative to the reference medium ([4]; WINE (dry white, pH 3.1)): 50%
C=CC(C)(CCC=C(C)C)O[C@@H]1O[C@H](CO)[C@@H](O)[C@H](O)[C@H]1O (stereo partly drawn) [Glc--Lin, linalyl β-D-glucopyranoside] | 10 | 9 | 19 | 

Now from value to compound, other results behind:

Terpene monoglucosides liberated by α-arabinosidase [1] [%] | Terpene monoglucosides liberated by α-rhamnosidase [1] [%] | Compound | % of monoglucosides [1] [%] | other results
28 | 5 | CC(C)=CCC/C(C)=C\CO[C@@H]1O[C@H](CO)[C@@H](O)[C@H](O)[C@H]1O [Glc--Ner, neryl β-D-glucopyranoside] | 33 | 
39 | 9 | CC(C)=CCC/C(C)=C/CO[C@@H]1O[C@H](CO)[C@@H](O)[C@H](O)[C@H]1O [Glc--Ger, geranyl β-D-glucopyranoside] | 48 | 
